Literature values in patent publication US6808938B2, “Method and apparatus for assaying a drug candidate to estimate a pharmacokinetic parameter associated therewith” (Biacore AB, priority 1999, dated 2004).

Settings: stated to explain lack of correlation at 500 μM in FIG. 7

- Solubility: < 500 µM
Structure (SMILES): CN1C(C(=O)Nc2ccccn2)=C(O)c2ccccc2S1(=O)=O [Piroxicam]
